This passage reports Activity and DC50 results from ChEMBL document CHEMBL5543147, “Discovery and Characterization of a Novel Cereblon-Recruiting PRC1 Bridged PROTAC Degrader” (J Med Chem, 2024).

Calls of active or inactive are those of the source. No cut-off for these calls is given here. Some results are limits rather than exact numbers.

The target in assay [1] is T1, von Hippel-Lindau disease tumor suppressor/Polycomb complex protein BMI-1 (Homo sapiens) (UniProt P40337+P35226). Put plainly: PROTAC activity at […] in human K562 cells assessed as degradation of BMI1 protein expression at 1 to 10 uM incubated for 24 hrs by Western blotting analysis. The class given is cell-based. The note with it: dose 1-10 µM.
Assay [2] concerns the target T2, Protein cereblon/E3 ubiquitin-protein ligase RING2 (Homo sapiens, UniProt Q96SW2+Q99496). Put plainly: PROTAC activity at CRBN/RING1B in human K562 cells assessed as degradation of RING1B protein expression at 1 to 10 uM incubated for 24 hrs by Western blotting analysis. The class given is cell-based. The note with it: dose 1-10 µM.
Assay [3] has as its system K562. Put plainly: Induction of PRC2 degradation in human K562 cells assessed as reduction of H3K27me3 chromatin mark at 1 to 10 uM incubated for 24 hrs by Western blotting analysis. The class given is cell-based. The note with it: dose 1-10 µM.
Assay [4] concerns K562. Nature of the assay: Antiproliferative activity against human K562 cells assessed as cell growth inhibition incubated for 7 days by WST-8 assay. The class given is functional. The following applies: time 7.0 day.
In assay [5] the test system is K562. Put plainly: Antiproliferative activity against human K562 cells assessed as increase in HoxA mRNA expression at 10 uM incubated for 24 hrs by RT-qPCR analysis. The class given is functional, cell-based.
The subject of assay [6] is K562. Nature of the assay: Antiproliferative activity against human K562 cells assessed as increase in HoxD mRNA expression at 10 uM incubated for 24 hrs by RT-qPCR analysis. The class given is functional, cell-based.
Assay [7] concerns the target T1, von Hippel-Lindau disease tumor suppressor/Polycomb complex protein BMI-1 (Homo sapiens). Put plainly: PROTAC activity at […] in human PC-3M cells assessed as degradation of BMI1 protein expression at 0.2 to 5 uM incubated for 24 hrs by Western blotting analysis. The class given is cell-based. The note with it: dose 0.2-5 µM.
Assay [8] deals with T2, Protein cereblon/E3 ubiquitin-protein ligase RING2. Nature of the assay: PROTAC activity at CRBN/RING1B in human PC-3M cells assessed as degradation of RING1B protein expression at 0.2 to 5 uM incubated for 24 hrs by Western blotting analysis. The class given is cell-based. The note with it: dose 0.2-5 µM.
Assay [9] concerns the target T3, Protein cereblon/Polycomb protein EED (Homo sapiens, UniProt O75530+Q96SW2). Nature of the assay: PROTAC activity at CRBN/EED in human PC-3M cells assessed as degradation of EED protein expression at 0.2 to 5 uM incubated for 24 hrs by Western blotting analysis. The following applies: dose 0.2-5 µM. The class given is cell-based.
Assay [10] deals with T4, Protein cereblon/Histone-lysine N-methyltransferase EZH2 (Homo sapiens) (UniProt Q15910+Q96SW2). Nature of the assay: PROTAC activity at CRBN/EZH2 in human PC-3M cells assessed as degradation of EZH2 protein expression at 0.2 to 5 uM incubated for 24 hrs by Western blotting analysis. The class given is cell-based. The note with it: dose 0.2-5 µM.
Assay [11] concerns the target T5, Protein cereblon/Polycomb protein SUZ12 (Homo sapiens) (UniProt Q15022+Q96SW2). Put plainly: PROTAC activity at CRBN/SUZ12 in human PC-3M cells assessed as degradation of SUZ12 protein expression at 0.2 to 5 uM incubated for 24 hrs by Western blotting analysis. The class given is cell-based. The following applies: dose 0.2-5 µM.
The test system of assay [12] is PC-3M. Put plainly: Induction of PRC2 degradation in human PC-3M cells assessed as reduction of H3K27me3 chromatin mark at 0.2 to 5 uM incubated for 24 hrs by Western blotting analysis. The class given is cell-based. The following applies: dose 0.2-5 µM.
The subject of assay [13] is PC-3M. Nature of the assay: Induction of PRC1 degradation in human PC-3M cells assessed as reduction of H2AK119ub chromatin mark at 0.2 to 5 uM incubated for 24 hrs by Western blotting analysis. The class given is cell-based. The following applies: dose 0.2-5 µM.
The target in assay [14] is T1, von Hippel-Lindau disease tumor suppressor/Polycomb complex protein BMI-1 (Homo sapiens). Nature of the assay: PROTAC activity at […] in human MDA-MB-468 cells assessed as degradation of BMI1 protein expression at 0.2 to 5 uM incubated for 24 hrs by Western blotting analysis. The class given is cell-based. The note with it: dose 0.2-5 µM.
For assay [15], the target named is T2, Protein cereblon/E3 ubiquitin-protein ligase RING2. Nature of the assay: PROTAC activity at CRBN/RING1B in human MDA-MB-468 cells assessed as degradation of RING1B protein expression at 0.2 to 5 uM incubated for 24 hrs by Western blotting analysis. The class given is cell-based. The following applies: dose 0.2-5 µM.
In assay [16] the target is T3, Protein cereblon/Polycomb protein EED. Nature of the assay: PROTAC activity at CRBN/EED in human MDA-MB-468 cells assessed as degradation of EED protein expression at 0.2 to 5 uM incubated for 24 hrs by Western blotting analysis. The class given is cell-based. The note with it: dose 0.2-5 µM.
For assay [17], the target named is T4, Protein cereblon/Histone-lysine N-methyltransferase EZH2 (Homo sapiens). Nature of the assay: PROTAC activity at CRBN/EZH2 in human MDA-MB-468 cells assessed as degradation of EZH2 protein expression at 0.2 to 5 uM incubated for 24 hrs by Western blotting analysis. The class given is cell-based. The note with it: dose 0.2-5 µM.
Assay [18] deals with T5, Protein cereblon/Polycomb protein SUZ12 (Homo sapiens). Put plainly: PROTAC activity at CRBN/SUZ12 in human MDA-MB-468 cells assessed as degradation of SUZ12 protein expression at 0.2 to 5 uM incubated for 24 hrs by Western blotting analysis. The class given is cell-based. The following applies: dose 0.2-5 µM.
The subject of assay [19] is MDA-MB-468. Nature of the assay: Induction of PRC2 degradation in human MDA-MB-468 cells assessed as reduction of H3K27me3 chromatin mark at 0.2 to 5 uM incubated for 24 hrs by Western blotting analysis. The following applies: dose 0.2-5 µM. The class given is cell-based.
Assay [20] relates to MDA-MB-468. Nature of the assay: Induction of PRC1 degradation in human MDA-MB-468 cells assessed as reduction of H2AK119ub chromatin mark at 0.2 to 5 uM incubated for 24 hrs by Western blotting analysis. The class given is cell-based. The note with it: dose 0.2-5 µM.
The target in assay [21] is von Hippel-Lindau disease tumor suppressor/Polycomb protein EED (Homo sapiens, UniProt O75530+P40337). Put plainly: PROTAC activity at VHL/EED in human KARPAS-422 cells assessed as degradation of EED protein expression by Western blotting analysis. The class given is cell-based.
In assay [22] the target is von Hippel-Lindau disease tumor suppressor/Histone-lysine N-methyltransferase EZH2 (Homo sapiens, UniProt Q15910+P40337). Put plainly: PROTAC activity at VHL/EZH2 in human KARPAS-422 cells assessed as degradation of EZH2 protein expression by Western blotting analysis. The class given is cell-based.
Sequence of von Hippel-Lindau disease tumor suppressor/Histone-lysine N-methyltransferase EZH2 (Q15910 whole entry): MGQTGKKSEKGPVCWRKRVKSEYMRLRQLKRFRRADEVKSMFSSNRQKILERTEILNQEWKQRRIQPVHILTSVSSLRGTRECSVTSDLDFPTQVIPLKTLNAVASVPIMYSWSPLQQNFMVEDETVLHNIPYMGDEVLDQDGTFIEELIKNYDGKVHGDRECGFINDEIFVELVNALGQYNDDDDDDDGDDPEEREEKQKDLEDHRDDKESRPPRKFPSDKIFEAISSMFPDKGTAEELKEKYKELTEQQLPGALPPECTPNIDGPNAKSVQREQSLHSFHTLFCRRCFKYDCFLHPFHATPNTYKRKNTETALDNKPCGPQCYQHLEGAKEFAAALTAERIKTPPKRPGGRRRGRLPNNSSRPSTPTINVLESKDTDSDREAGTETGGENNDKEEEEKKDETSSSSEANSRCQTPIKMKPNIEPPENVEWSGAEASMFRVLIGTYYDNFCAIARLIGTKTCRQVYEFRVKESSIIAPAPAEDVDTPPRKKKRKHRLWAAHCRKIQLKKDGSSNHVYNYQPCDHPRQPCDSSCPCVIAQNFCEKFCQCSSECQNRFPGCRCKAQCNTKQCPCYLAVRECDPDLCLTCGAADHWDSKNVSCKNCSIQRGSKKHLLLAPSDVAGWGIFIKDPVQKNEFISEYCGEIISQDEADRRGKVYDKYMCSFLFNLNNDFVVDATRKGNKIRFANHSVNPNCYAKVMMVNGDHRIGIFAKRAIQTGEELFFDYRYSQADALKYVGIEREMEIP
Sequence of von Hippel-Lindau disease tumor suppressor/Histone-lysine N-methyltransferase EZH2 (P40337 whole entry): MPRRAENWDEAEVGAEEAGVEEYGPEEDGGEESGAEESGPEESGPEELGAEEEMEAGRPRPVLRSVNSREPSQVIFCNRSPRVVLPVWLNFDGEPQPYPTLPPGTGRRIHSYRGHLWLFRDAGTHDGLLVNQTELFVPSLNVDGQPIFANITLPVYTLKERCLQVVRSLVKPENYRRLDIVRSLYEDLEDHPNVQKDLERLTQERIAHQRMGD

T1 sequence (P35226 whole entry, looked up): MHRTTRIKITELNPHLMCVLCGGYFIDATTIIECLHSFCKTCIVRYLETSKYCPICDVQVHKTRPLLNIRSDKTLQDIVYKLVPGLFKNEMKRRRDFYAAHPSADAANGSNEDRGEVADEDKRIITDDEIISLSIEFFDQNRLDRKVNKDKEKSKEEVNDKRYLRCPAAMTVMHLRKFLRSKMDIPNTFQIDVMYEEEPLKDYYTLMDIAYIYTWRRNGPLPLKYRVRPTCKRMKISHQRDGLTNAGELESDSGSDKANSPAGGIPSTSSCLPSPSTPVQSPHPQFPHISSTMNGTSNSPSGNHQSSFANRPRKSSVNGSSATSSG
T1 sequence (P40337 whole entry, looked up): as the sequence (P40337 whole entry) above
T2 sequence (Q96SW2 whole entry): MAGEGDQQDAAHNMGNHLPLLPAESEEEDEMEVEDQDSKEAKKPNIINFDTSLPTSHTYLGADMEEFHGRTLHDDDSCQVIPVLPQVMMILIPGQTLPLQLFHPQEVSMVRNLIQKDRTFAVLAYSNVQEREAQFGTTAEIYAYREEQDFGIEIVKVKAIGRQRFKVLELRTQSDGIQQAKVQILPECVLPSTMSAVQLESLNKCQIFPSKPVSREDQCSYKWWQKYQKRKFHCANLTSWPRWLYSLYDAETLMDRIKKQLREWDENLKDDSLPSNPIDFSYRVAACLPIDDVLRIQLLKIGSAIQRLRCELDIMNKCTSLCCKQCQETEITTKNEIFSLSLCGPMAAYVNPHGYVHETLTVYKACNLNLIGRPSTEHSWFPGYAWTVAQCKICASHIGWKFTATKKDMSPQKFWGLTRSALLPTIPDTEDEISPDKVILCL
T2 sequence (Q99496 2-336 partner limits assumed): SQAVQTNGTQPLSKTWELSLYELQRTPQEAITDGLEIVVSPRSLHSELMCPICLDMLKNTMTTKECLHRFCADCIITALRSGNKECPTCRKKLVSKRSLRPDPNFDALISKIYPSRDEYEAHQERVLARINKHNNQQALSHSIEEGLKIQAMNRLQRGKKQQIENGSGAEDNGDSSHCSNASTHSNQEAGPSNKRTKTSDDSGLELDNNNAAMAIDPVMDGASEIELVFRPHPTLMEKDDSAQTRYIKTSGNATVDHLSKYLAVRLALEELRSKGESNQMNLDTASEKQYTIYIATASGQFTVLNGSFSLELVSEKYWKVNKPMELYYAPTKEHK
T5 sequence (Q15022 whole entry, looked up): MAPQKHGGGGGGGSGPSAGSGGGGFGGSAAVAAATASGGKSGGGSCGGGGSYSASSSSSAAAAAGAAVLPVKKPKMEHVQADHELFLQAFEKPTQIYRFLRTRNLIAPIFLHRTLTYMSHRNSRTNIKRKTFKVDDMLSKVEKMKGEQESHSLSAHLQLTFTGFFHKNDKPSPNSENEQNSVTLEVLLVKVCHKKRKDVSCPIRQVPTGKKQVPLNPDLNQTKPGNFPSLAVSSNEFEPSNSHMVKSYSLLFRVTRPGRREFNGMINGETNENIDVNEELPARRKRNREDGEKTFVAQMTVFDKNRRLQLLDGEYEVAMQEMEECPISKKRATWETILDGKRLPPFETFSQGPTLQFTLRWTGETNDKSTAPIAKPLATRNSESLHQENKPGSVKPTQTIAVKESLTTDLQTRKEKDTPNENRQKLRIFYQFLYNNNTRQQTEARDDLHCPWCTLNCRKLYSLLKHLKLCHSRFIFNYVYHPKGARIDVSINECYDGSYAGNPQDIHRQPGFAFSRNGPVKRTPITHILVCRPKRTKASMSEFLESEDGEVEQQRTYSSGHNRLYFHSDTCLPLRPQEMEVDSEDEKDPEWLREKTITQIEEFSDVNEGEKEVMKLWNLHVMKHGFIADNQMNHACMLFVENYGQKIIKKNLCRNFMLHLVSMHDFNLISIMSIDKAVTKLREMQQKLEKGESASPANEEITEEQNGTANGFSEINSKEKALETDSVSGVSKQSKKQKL
T5 sequence (Q96SW2 whole entry, looked up): as the sequence (Q96SW2 whole entry) above
T4 sequence (Q15910 whole entry, looked up): as the sequence (Q15910 whole entry) above
T4 sequence (Q96SW2 whole entry, looked up): as the sequence (Q96SW2 whole entry) above
T3 sequence (O75530 2-441 limits assumed): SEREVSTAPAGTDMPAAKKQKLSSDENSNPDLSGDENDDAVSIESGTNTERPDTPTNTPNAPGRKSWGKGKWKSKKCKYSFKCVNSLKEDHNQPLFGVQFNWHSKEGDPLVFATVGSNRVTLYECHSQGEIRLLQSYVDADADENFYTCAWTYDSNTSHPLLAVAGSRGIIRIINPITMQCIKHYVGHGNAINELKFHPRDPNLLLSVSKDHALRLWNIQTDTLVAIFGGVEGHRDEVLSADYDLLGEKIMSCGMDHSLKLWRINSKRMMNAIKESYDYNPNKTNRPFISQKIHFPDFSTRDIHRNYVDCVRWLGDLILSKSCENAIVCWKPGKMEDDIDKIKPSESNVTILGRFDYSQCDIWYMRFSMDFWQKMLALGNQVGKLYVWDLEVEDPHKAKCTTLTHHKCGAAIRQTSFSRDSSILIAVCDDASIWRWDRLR
T3 sequence (Q96SW2 whole entry partner): as the sequence (Q96SW2 whole entry) above
Sequence of von Hippel-Lindau disease tumor suppressor/Polycomb protein EED (O75530 whole entry): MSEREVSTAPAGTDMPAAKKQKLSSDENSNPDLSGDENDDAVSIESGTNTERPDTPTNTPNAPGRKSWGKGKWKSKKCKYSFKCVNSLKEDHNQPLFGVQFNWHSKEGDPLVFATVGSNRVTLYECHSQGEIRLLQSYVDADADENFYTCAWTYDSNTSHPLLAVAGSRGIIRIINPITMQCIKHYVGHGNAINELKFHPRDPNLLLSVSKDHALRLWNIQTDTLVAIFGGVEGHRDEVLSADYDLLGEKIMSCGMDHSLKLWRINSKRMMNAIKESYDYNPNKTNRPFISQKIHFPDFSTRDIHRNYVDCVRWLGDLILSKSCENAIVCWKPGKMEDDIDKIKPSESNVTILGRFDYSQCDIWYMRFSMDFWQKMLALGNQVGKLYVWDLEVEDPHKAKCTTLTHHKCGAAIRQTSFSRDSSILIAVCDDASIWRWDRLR
Sequence of von Hippel-Lindau disease tumor suppressor/Polycomb protein EED (P40337 whole entry): as the sequence (P40337 whole entry) above

For `Cc1nc(CCC(=O)NCCOc2ccc(OCC(=O)N[C@H](C(=O)N3C[C@H](O)C[C@H]3C(=O)NCc3ccc(-c4scnc4C)cc3)C(C)(C)C)cc2)ccc1-c1cnc(NCc2c(F)ccc3c2CCO3)n2cnnc12`, the outcome (in [1]; in [2]; in the assay with K562 [4]; in the assay on K562 [5]; in the assay on K562 [6]; in assay [7]) was inactive. Further, the outcome (in [8]; in the assay on PC-3M [13]; in assay [14]; in [15]; in the assay with MDA-MB-468 [20]) was inactive. The result (in the assay with K562 [3]; in assay [9]; in [10]; in [11]; with PC-3M [12]; in assay [16]) was Active. Moreover, the result (in [17]; in assay [18]; with MDA-MB-468 [19]) was Active. For the same molecule, the DC50 in assay [21] and in assay [22] was less than 120 nM each time.
